PubChem BioAssay AID2060620 (Molecular Pharmacology Branch, DTP, NCI, 2025)
Values joined by “and” are separate entries in the source; they are usually repeats but may differ in a detail not shown here. Equal values may be shown once.

Test system: 328373-195-R-J1-PDC complex spheroids, viability % test/control
Assay: Anticancer human tumor 328373-195-R-J1-PDC patient-derived head and neck squamous carcinoma cell line growth inhibition [CLK]
Conditions: for viability, T/C: stronger effect = lower value
In short: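 Patient-derived tumor cells grown as complex spheroids with HUVEC endothelial cells and mesenchymal stem cells, treated with drug combinations. Concentrations descend in half-log steps from near clinical Cmax, or from 10 microM if Cmax unknown.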
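Also: spheroids exposed to the agents for 7 days.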

Q: What does the source list for `C=CC(=O)N1CCN(c2nc(=O)n(-c3c(C)ccnc3C(C)C)c3nc(-c4c(O)cccc4F)c(F)cc23)C(C)C1` (centres undefined) + CNC(=O)c1ccc(Nc2nc(OC3CCCC3)c3c(-c4ccc5nc(C)oc5c4)c[nH]c3n2)c(OC)c1?
A: IC50 (curve of first compound, second compound 0.0316 µM): > 10000 nM; IC50 (curve of first compound, second compound 0.1 µM): < 31.6 nM; IC50 (curve of first compound, second compound 0.316 µM): < 31.6 nM; IC50 (curve of first compound, second compound 1 µM): < 31.6 nM; IC50 (curve of first compound, second compound 3.16 µM): < 31.6 nM; IC50 (curve of first compound, second compound 10 µM): < 31.6 nM; viability, T/C (second compound 0.0316 µM, first compound 0.0316 µM): 57.3%; viability, T/C (second compound 0.0316 µM, first compound 0.1 µM): 59.7%; viability, T/C (second compound 0.0316 µM, first compound 0.316 µM): 60.2%; viability, T/C (second compound 0.0316 µM, first compound 1 µM): 64.9%; viability, T/C (second compound 0.0316 µM, first compound 3.16 µM): 65.1%; viability, T/C (second compound 0.0316 µM, first compound 10 µM): 47.7%; viability, T/C (second compound 0.1 µM, first compound 0.0316 µM): 11.2%; viability, T/C (second compound 0.1 µM, first compound 0.1 µM): 10.2%; viability, T/C (second compound 0.1 µM, first compound 0.316 µM): 11.6%; viability, T/C (second compound 0.1 µM, first compound 1 µM): 12.8%; viability, T/C (second compound 0.1 µM, first compound 3.16 µM): 13.2%; viability, T/C (second compound 0.1 µM, first compound 10 µM): 9.6%; viability, T/C (second compound 0.316 µM, first compound 0.0316 µM): 8.33%; viability, T/C (second compound 0.316 µM, first compound 0.1 µM): 10.6%; viability, T/C (second compound 0.316 µM, first compound 0.316 µM): 9.38%; viability, T/C (second compound 0.316 µM, first compound 1 µM): 10.4%; viability, T/C (second compound 0.316 µM, first compound 3.16 µM): 13.9%; viability, T/C (second compound 0.316 µM, first compound 10 µM): 10.3%; viability, T/C (second compound 1 µM, first compound 0.0316 µM): 10.1%; viability, T/C (second compound 1 µM, first compound 0.1 µM): 9.55%; viability, T/C (second compound 1 µM, first compound 0.316 µM): 9.73%; viability, T/C (second compound 1 µM, first compound 1 µM): 10.4%; viability, T/C (second compound 1 µM, first compound 3.16 µM): 13.2%; viability, T/C (second compound 1 µM, first compound 10 µM): 8.42%; viability, T/C (second compound 3.16 µM, first compound 0.0316 µM): 10.1%; viability, T/C (second compound 3.16 µM, first compound 0.1 µM): 13.2%; viability, T/C (second compound 3.16 µM, first compound 0.316 µM): 10.9%; viability, T/C (second compound 3.16 µM, first compound 1 µM): 10.9%; viability, T/C (second compound 3.16 µM, first compound 3.16 µM): 15.1%; viability, T/C (second compound 3.16 µM, first compound 10 µM): 10.7%; viability, T/C (second compound 10 µM, first compound 0.0316 µM): 12.8%; viability, T/C (second compound 10 µM, first compound 0.1 µM): 11.7%; viability, T/C (second compound 10 µM, first compound 0.316 µM): 12.2%; viability, T/C (second compound 10 µM, first compound 1 µM): 13.3%; viability, T/C (second compound 10 µM, first compound 3.16 µM): 14.5%; viability, T/C (second compound 10 µM, first compound 10 µM): 8.55%

Q: Which results are given for `Nc1ccn(C2OC(CO)C(O)C2(F)F)c(=O)n1` (centres undefined)?
A: viability, T/C (compound 0.0316 µM): 4.83% and 1.9%; viability, T/C (compound 0.1 µM): 2.69% and 2.98%; viability, T/C (compound 0.316 µM): 2.89% and 2.37%; viability, T/C (compound 1 µM): 2.8% and 3.02%; viability, T/C (compound 3.16 µM): 2.26% and 2.69%; viability, T/C (compound 10 µM): 2.3% and 1.66%; IC50 (curve of compound): < 31.6 nM
